Reference: US20050181042A1, “Composition for oral or rectal administration” (priority 2002, published 2005)

Assay: Plasma gentamycin after oral administration to NZW rabbits
Format: in vivo
Conditions: for Plasma concentration of gentamycin: n = 3
Method: NZW rabbits were used in all experiments and all tablet/capsules were administered orally. The animals were given four, five or six tablets/capsules followed by water until they had swallowed the tablets/capsules. The animals were deprived of food for about 18 hours before dosing. […] The blood samples were centrifuged for 10 min at approximately 2000×g to obtain plasma for determination of gentamycin by EMIT 2000 TDM assay on a Hitachi 704 Analyzer (Table 10).
The area under the curve (AUC) was calculated by the linear trapezoidal rule to the last blood concentration. Two different doses (5 or 10 mg/kg bodyweight) were used during the experiments. For comparison of the results of the different formulations the AUC was divided by the respective dose of gentamycin. The obtained plasma concentration for pure gentamycin was set to 1. The obtained plasma concentrations for gentamycin in the three different lipid formulations were then expressed as multiple factors of increasing bioabsorption.

Gentamycin sulphate [Gentamycin 1]
Correlation factor (multiple of bioabsorption, pure gentamycin = 1) (dose-adjusted AUC relative to Gentamycin 1): 1
Plasma concentration of gentamycin (oral, dose 10 mg/kg, 0 hrs): 0 microgram/mL
Plasma concentration of gentamycin (oral, dose 10 mg/kg, 0.5 hrs): 0.01 microgram/mL
Plasma concentration of gentamycin (oral, dose 10 mg/kg, 1 hr): 0.01 microgram/mL
Plasma concentration of gentamycin (oral, dose 10 mg/kg, 2 hrs): 0.02 microgram/mL
Plasma concentration of gentamycin (oral, dose 10 mg/kg, 4 hrs): 0.01 microgram/mL
Plasma concentration of gentamycin (oral, dose 10 mg/kg, 6 hrs): 0.03 microgram/mL
AUC (oral, dose 10 mg/kg, linear trapezoidal rule to last blood concentration (6 hrs)): 0.09
